This is an account of results in ChEMBL document CHEMBL3525902, “In vitro metabolism of oxymetazoline: evidence for bioactivation to a reactive metabolite” (Drug Metab Dispos, 2011).

The structures appear in SMILES notation.

Series [1] is described as follows: Drug metabolism in NADPH supplemented rabbit liver microsomes fraction assessed as 3-((1H-imidazol-2-yl)methyl)-6-(1-hydroxy-2-methylpropan-2-yl)-2,4-dimethylphenol formation at 50 uM after 1 hr by LC-MS/MS method. The format is ADME, Oryctolagus cuniculus.
Series [2] concerns Liver microsome. Briefly: Drug metabolism in NADPH supplemented rat liver microsomes fraction assessed as 3-((1H-imidazol-2-yl)methyl)-6-tert-butyl-2,4-dimethylphenol formation at 50 uM after 1 hr by LC-MS/MS method. It counts as ADME.
In series [3] the test system is Liver microsome. Nature of the series: Drug metabolism in NADPH supplemented human liver microsomes fraction assessed as 3-((4,5-dihydro-1H-imidazol-2-yl)methyl)-6-(1-hydroxy-2-methylpropan-2-yl)-2,4-dimethylphenol formation at 50 uM after 1 hr by LC-MS/MS method. It counts as ADME.
A short description of series [4]: Drug metabolism in NADPH supplemented rabbit liver microsomes fraction assessed as 3-((4,5-dihydro-1H-imidazol-2-yl)methyl)-6-(1-hydroxy-2-methylpropan-2-yl)-2,4-dimethylphenol formation at 50 uM after 1 hr by LC-MS/MS method. The format is ADME, Oryctolagus cuniculus.
Series [5] deals with Liver microsome. Briefly: Drug metabolism in NADPH supplemented human liver microsomes fraction assessed as 3-((1H-imidazol-2-yl)methyl)-6-(1-hydroxy-2-methylpropan-2-yl)-2,4-dimethylphenol formation at 50 uM after 1 hr by LC-MS/MS method. The format is ADME.
A short description of series [6]: Retention time of the compound at 50 uM by LC-MS/MS method. The format is physicochemical.
The next series deals with Cytochrome P450 2C19 (Homo sapiens, UniProt P33261). Briefly: Activity of human recombinant CYP2C19 assessed as 3-((4,5-dihydro-1H-imidazol-2-yl)methyl)-6-(1-hydroxy-2-methylpropan-2-yl)-2,4-dimethylphenol formation at 50 uM in presence of NADPH by LC-MS/MS method. It counts as ADME. The conditions noted are these: recombinant enzyme.
The nature of series [7]: Drug metabolism in NADPH supplemented human liver S9 fraction assessed as 3-((4,5-dihydro-1H-imidazol-2-yl)methyl)-6-(1-hydroxy-2-methylpropan-2-yl)-2,4-dimethylphenol formation at 50 uM in presence of glutathione by LC-MS/MS method. It counts as ADME, subcellular. The conditions noted are these: s9, 50 µM.
Another series deals with T1, Cytochrome P450 1A2 (Homo sapiens, UniProt P05177).
T1 sequence (P05177 whole entry): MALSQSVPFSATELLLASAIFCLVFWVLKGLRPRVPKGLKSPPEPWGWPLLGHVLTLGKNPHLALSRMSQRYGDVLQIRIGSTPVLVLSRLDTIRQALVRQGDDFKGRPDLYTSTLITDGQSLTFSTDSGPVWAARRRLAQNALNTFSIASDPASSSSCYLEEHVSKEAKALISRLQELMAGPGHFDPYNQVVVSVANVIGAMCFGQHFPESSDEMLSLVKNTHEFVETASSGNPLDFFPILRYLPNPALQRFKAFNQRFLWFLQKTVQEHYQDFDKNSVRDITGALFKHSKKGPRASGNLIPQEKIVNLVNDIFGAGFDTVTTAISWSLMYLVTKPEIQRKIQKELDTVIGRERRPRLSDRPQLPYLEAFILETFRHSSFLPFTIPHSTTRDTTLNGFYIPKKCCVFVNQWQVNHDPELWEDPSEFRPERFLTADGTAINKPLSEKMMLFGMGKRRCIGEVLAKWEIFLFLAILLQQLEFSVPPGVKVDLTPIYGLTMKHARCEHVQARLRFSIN
Nature of the series: Activity of human recombinant CYP1A2 assessed as metabolite formation at 50 uM in presence of NADPH by LC-MS/MS method. The format is ADME. The conditions noted are these: recombinant enzyme.

Series [8] relates to Liver microsome. Nature of the series: Drug metabolism in NADPH supplemented rat liver microsomes fraction assessed as 3-((1H-imidazol-2-yl)methyl)-6-(1-hydroxy-2-methylpropan-2-yl)-2,4-dimethylphenol formation at 50 uM after 1 hr by LC-MS/MS method. The format is ADME.
For another series, the target named is T2, Cytochrome P450 2C18 (Homo sapiens, UniProt P33260).
T2 sequence (P33260 whole entry): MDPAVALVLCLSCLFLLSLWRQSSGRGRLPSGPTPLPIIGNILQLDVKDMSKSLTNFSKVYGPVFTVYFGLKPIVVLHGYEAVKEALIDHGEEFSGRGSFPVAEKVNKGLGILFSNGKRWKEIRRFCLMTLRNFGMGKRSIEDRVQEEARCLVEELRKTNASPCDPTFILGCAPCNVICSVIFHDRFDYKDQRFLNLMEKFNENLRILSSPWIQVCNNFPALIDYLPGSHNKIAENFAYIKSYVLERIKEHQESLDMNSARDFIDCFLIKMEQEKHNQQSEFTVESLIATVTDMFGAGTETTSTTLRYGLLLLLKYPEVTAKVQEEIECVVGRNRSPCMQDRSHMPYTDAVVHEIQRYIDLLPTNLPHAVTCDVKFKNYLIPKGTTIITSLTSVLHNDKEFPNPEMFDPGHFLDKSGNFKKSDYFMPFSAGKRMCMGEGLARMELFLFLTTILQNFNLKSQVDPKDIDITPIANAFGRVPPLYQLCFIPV
Nature of the series: Activity of human recombinant CYP2C18 assessed as metabolite formation at 50 uM in presence of NADPH by LC-MS/MS method. The settings on record: recombinant enzyme. It counts as ADME.

Sequence of Cytochrome P450 2C19 (P33261 whole entry): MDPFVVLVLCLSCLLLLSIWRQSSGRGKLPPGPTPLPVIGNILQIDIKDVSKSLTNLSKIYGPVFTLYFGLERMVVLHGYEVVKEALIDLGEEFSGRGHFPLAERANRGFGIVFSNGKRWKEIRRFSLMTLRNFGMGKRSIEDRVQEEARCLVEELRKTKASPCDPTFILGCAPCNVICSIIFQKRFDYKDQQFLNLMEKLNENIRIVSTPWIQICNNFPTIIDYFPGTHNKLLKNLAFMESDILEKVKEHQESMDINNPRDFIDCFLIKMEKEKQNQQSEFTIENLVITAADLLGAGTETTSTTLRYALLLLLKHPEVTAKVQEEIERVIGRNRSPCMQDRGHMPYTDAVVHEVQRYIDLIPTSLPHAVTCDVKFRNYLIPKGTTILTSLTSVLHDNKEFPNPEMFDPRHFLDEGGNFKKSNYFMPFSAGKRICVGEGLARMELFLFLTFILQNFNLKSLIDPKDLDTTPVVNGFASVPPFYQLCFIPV

Turning to `Cc1cc(C(C)(C)C)c(O)c(C)c1CC1=NCCN1` [OXYMETAZOLINE], the Drug metabolism result (in series [1]; in the series on Liver microsome [2]; with Liver microsome [3]; in series [4]; in the series on Liver microsome [5]; at Cytochrome P450 2C19) was “metabolite_detected” in each case. Also, the Drug metabolism entry is “metabolite_detected” in [7], “metabolite_not_detected” at Cytochrome P450 1A2, “metabolite_detected” with Liver microsome [8] and “metabolite_not_detected” on Cytochrome P450 2C18. The compound further returned a Retention_time in [6] of 12.2 min.
